# In patent US9023855B2, “Compounds” (Chiesi Farmaceutici S.p.A., priority 2011, dated 2015):
# Target: T1, human neutrophil elastase (HNE) (Homo sapiens, UniProt P08246)
# T1 construct: purchased Sigma E8140
# T1 sequence (P08246 30-267): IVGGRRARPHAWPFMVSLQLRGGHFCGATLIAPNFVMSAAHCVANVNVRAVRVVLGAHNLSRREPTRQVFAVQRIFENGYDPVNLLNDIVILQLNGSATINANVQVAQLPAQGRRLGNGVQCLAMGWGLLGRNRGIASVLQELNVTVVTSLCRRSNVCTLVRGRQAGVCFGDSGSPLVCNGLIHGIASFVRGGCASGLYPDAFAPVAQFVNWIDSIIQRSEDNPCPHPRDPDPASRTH
# Assay: HNE enzyme assay (fluorogenic peptide substrate MeOSuc-Ala-Ala-Pro-Val-AMC)
# Type: biochemical
# Details: human leukocyte elastase, substrate 100 μM, 25° C., 30 minutes, at least two separate experiments; read-out: HNE inhibition (IC50 values)
# Method: Compounds of this invention were tested for potency in a human neutrophil elastase (HNE) enzyme activity assay.
# Assays were performed in 96-well plates in a total assay volume of 100 μl. The final concentration of elastase enzyme (human leukocyte elastase, Sigma E8140) was 0.0036 units/well […]. The peptide substrate (MeOSuc-Ala-Ala-Pro-Val-AMC, Calbiochem #324740) was used at a final concentration of 100 μM. The final concentration of DMSO was 1% in the assay buffer (0.05M Tris.HCl, 0.1M NaCl, 0.1M CaCl2, 0.0005% brij-35, pH 7.5). The enzymatic reaction was started by addition of the enzyme and incubated at 25° C. for 30 minutes. After incubation, the reaction was stopped by addition of soybean trypsin inhibitor (Sigma T9003) at a final concentration of 50 μg/well. Fluorescence was measured using a Molecular Devices fluorescence plate reader using 380 nm excitation and 460 nm emission wavelengths.
# A dose response to each compound was performed, and the effect of the compound in each experiment was expressed as a percentage inhibition of the control enzyme fluorescence. Dose response curves were plotted and compound potency (IC50) was determined. Compounds were tested in at least two separate experiments.
row,SMILES,IC50 [nM]
1,"CCNC(=O)C1=C(C)N(c2cccc(C(F)(F)F)c2)c2n[nH]c(=O)n2C1c1ccc(C#N)cc1 (stereo not shown) [Example 12, 5-(4-Cyano-phenyl)-7-methyl-3-oxo-8-(3-trifluoromethyl-phenyl)-2,3,5,8-tetrahydro-[1,2,4]triazolo[4,3-a]pyrimidine-6-carboxylic acid ethylamide]",20 to 100
2,"COC(=O)C1=C(C)N(c2cccc(C(F)(F)F)c2)c2nn(Cc3ccc(S(C)(=O)=O)cc3)c(=O)n2[C@@H]1c1ccc(C#N)cc1 [Example 17, (R)-5-(4-Cyano-phenyl)-2-(4-methanesulfonyl-benzyl)-7-methyl-3-oxo-8-(3-trifluoromethyl-phenyl)-2,3,5,8-tetrahydro-[1,2,4]triazolo[4,3-a]pyrimidine-6-carboxylic acid methyl ester]",< 20
3,"COC(=O)C1=C(C)N(c2cccc(C(F)(F)F)c2)c2nn(S(=O)(=O)c3ccc(CN(C)CCN(C)C)cc3)c(=O)n2C1c1ccc(C#N)cc1 (stereo not shown) [Example 19, 5-(4-Cyano-phenyl)-2-(4-{[(2-dimethylamino-ethyl)-methyl-amino]-methyl}-benzenesulfonyl)-7-methyl-3-oxo-8-(3-trifluoromethyl-phenyl)-2,3,5,8-tetrahydro-[1,2,4]triazolo[4,3-a]pyrimidine-6-carboxylic acid methyl ester]",20 to 100
4,"COC(=O)C1=C(C)N(c2cccc(C(F)(F)F)c2)c2nn(CC(=O)N(C)CCCCCN(C)C)c(=O)n2C1c1ccc(C#N)cc1 (stereo not shown) [Example 30, 5-(4-Cyano-phenyl)-2-{[(5-dimethylamino-pentyl)-methyl-carbamoyl]-methyl}-7-methyl-3-oxo-8-(3-trifluoromethyl-phenyl)-2,3,5,8-tetrahydro-[1,2,4]triazolo[4,3-a]pyrimidine-6-carboxylic acid methyl ester]",< 20
5,"COC(=O)C1=C(C)N(c2cccc(C(F)(F)F)c2)c2nn(Cc3ccc(S(C)(=O)=O)cn3)c(=O)n2C1c1ccc(C#N)cc1 (stereo not shown) [Example 23, 5-(4-Cyano-phenyl)-2-(5-methanesulfonyl-pyridin-2-ylmethyl)-7-methyl-3-oxo-8-(3-trifluoromethyl-phenyl)-2,3,5,8-tetrahydro-[1,2,4]triazolo[4,3-a]pyrimidine-6-carboxylic acid methyl ester]",< 20

# Further lines, results first:
row,IC50 [nM],SMILES
1,< 20,"COC(=O)C1=C(C)N(c2cccc(C(F)(F)F)c2)c2nn(CCCN(C)C(C)=O)c(=O)n2C1c1ccc(C#N)cc1 (stereo not shown) [Example 35, 2-[3-(Acetyl-methyl-amino)-propyl]-5-(4-cyano-phenyl)-7-methyl-3-oxo-8-(3-trifluoromethylphenyl)-2,3,5,8-tetrahydro-[1,2,4]triazolo[4,3-a]pyrimidine-6-carboxylic acidmethyl ester]"
2,< 20,"COC(=O)C1=C(C)N(c2cccc(C(F)(F)F)c2)c2nn(CC(=O)N(C)CCCCC[N+](C)(C)C)c(=O)n2C1c1ccc(C#N)cc1 (stereo not shown) [Example 32, [5-({2-[5-(4-Cyano-phenyl)-6-methoxycarbonyl-7-methyl-3-oxo-8-(3-trifluoromethyl-phenyl)-5,8-dihydro-[1,2,4]triazolo[4,3-a]pyrimidin-2-yl]-acetyl}-methyl-amino)pentyl]-trimethyl-ammonium; bromide]"
